Measurements as given in patent US7781460B2, “Substituted indazoles as inhibitors of phosphodiesterase type-IV” (Ranbaxy Laboratories Limited, priority 2005, dated 2010).

System: TNF-α release from LPS-stimulated human peripheral blood mononuclear cells
Experiment: Cell based assay for TNF-α release (LPS stimulation of human PBMNC's)
Conditions: PBMC; human PBMN cells, LPS 1 μg/ml, incubated overnight, ELISA; read-out: IC50, inhibition of TNF-α release
Description: Cell based Assay for TNF-α Release
Method of Isolation of Human Peripheral Blood Mononuclear Cells:
Human whole blood was collected in vacutainer tubes containing heparin or EDTA as an anti coagulant. The blood was diluted (1:1) in sterile phosphate buffered saline and 10 ml. was carefully layered over 5 ml Ficoll Hypaque gradient (density 1.077 g/ml) in a 15 ml conical centrifuge tube. The sample was centrifuged at 3000 rpm for 25 minutes in a swing-out rotor at room temperature. After centrifugation, interface of cells were collected, diluted at least 1:5 with PBS and washed three times by centrifugation at 2500 rpm for 10 minutes at room temperature. The cells were resuspended in serum free RPMI 1640 medium at a concentration of 2 million cells/ml. Alternatively whole blood was used.
LPS Stimulation of Human PBMNC's:
PBMN cells (0.1 ml; 2 million/ml) were co-incubated with 20 μl of compound (final DMSO concentration of 0.2%) for 10 min in a flat bottom 96 well microtiter plate. Compounds were dissolved in DMSO initially and diluted in medium for a final concentration of 0.2% DMSO. LPS (1 μg/ml, final concentration) was then added at a volume of 10 μl per well. After 30 min, 20 μl of fetal calf serum (final concentration of 10%) was added to each well. Cultures were incubated overnight at 37° C. in an atmosphere of 5% CO2 and 95% air. Supernatant were then removed and tested by ELISA for TNF-α release using a commercial kit (e.g. BD Biosciences). For whole blood, the plasma samples were diluted 1:20 for ELISA. The level of TNF-α in treated wells was compared with the vehicle treated controls and inhibitory potency of compound was expressed as IC50 values calculated by using Graph pad prism.

SMILES | IC50 [µM]
Cc1nn(C2CCCC2)c2cc(C3=NOC(C)(C#N)C3)ccc12 (stereo not shown) [Compound 2, 3-(1-Cyclopentyl-3-methyl-1H-indazol-6-yl)-5-methyl-4,5-dihydroisoxazole-5-carbonitrile] | 4.2 to 10
CCc1nn(C2CCCC2)c2cc(C3=NOC(C)(C#N)C3)ccc12 (stereo not shown) [Compound 3, 3-(1-Cyclopentyl-3-ethyl-1H-indazol-6-yl)-5-methyl-4,5-dihydroisoxazole-5-carbonitrile] | 4.2 to 10
Cc1nn(C2CCCC2)c2cc(C3=NOC(C)(c4nc(-c5cc(F)ccc5F)no4)C3)ccc12 (stereo not shown) [Compound 23, 1-Cyclopentyl-6-{5-[3-(2,5-difluorophenyl)-1,2,4-oxadiazol-5-yl]-5-methyl-4,5-dihydroisoxazol-3-yl}-3-methyl-1H-indazole] | 4.2 to 10
CCc1nn(C2CCCC2)c2cc(C3=NOC(C)(c4nc(-c5cc(Cl)ccc5Cl)no4)C3)ccc12 (stereo not shown) [Compound 31, 1-Cyclopentyl-6-{5-[3-(2,5-dichlorophenyl)-1,2,4-oxadiazol-5-yl]-5-methyl-4,5-dihydroisoxazol-3-yl}-3-ethyl-1H-indazole] | 4.2 to 10
CCc1nn(C2CCCC2)c2cc(C3=NOC(C)(c4nc(-c5cc(F)ccc5F)no4)C3)ccc12 (stereo not shown) [Compound 32, 1-Cyclopentyl-6-{5-[3-(2,5-difluorophenyl)-1,2,4-oxadiazol-5-yl]-5-methyl-4,5-dihydroisoxazol-3-yl}-3-ethyl-1H-indazole] | 4.2 to 10
COc1ccc(C2CNC(=O)C2)cc1OC1CCCC1 (stereo not shown) [rolipram, reference compound] | 1.2

System: not given
Experiment: not given
Conditions: not given

SMILES | melting point [°C]
CCc1nn(C2CCCC2)c2cc(C3=NOC(C)(c4noc(-c5ccc(Cl)cc5)n4)C3)ccc12 (stereo not shown) [Compound 11, 6-{5-[5-(4-Chlorophenyl)-1,2,4-oxadiazol-3-yl]-5-methyl-4,5-dihydroisoxazol-3-yl}-1-cyclopentyl-3-ethyl-1H-indazole] | 154 to 155
